Data published in publication PMC6270209, “Synthesis, Antimycobacterial Activity and In Vitro Cytotoxicity of 5-Chloro-N-phenylpyrazine-2-carboxamides” (Molecules, 2013).
pIC50: −log10 of the molar value. In brackets after ≈: the same amount, converted by molar mass. Read-outs that look alike come from different tables or passages of the source.

Legend:
[1] = RP-HPLC, C18, MeOH 70% / H2O 30%, 30 °C
M. avium CNCTC My 152/73 = assay: In vitro antimycobacterial activity, microdilution panel method (MIC); type: cell-based, Mycobacterium avium; conditions: for MIC: Mycobacterium avium
[2] = system: M. avium ssp. avium Chester CNCTC My 80/72; assay: as above; type: cell-based, Mycobacterium avium; conditions: for MIC: Mycobacterium avium
[3] = system: M. tuberculosis H37Rv CNCTC My 331/88; assay: as above; type: cell-based, Mycobacterium tuberculosis; conditions: for MIC: Mycobacterium tuberculosis, H37RV
HepG2 cells = conditions: for pIC50: read-out: Cytotoxicity IC50, HepG2 cells, 24 h incubation (Table 1)
[4] = system: M. kansasii Hauduroy CNCTC My 235/80; assay: In vitro antimycobacterial activity, microdilution panel method (MIC); type: cell-based, Mycobacterium kansasii; conditions: for MIC: Mycobacterium kansasii; for MIC / Antimycobacterial activity MIC, M. kansasii: M. kansasii Hauduroy CNCTC My 235/80
in vitro = conditions: human
[5] = M. tuberculosis H37Rv, primary test, dilution scale 100–[…], Šula's medium pH 5.6
[6] = SI calculated for M. tbc as IC50 (HepG2)/MIC (in μM) using the lower MIC values (Table 1)
[7] = pH 5.6, M. tuberculosis H37Rv, primary test, dilution scale 100–[…], Šula's medium pH 5.6, read-out: Antimycobacterial activity MIC, M. tbc
[8] = M. tuberculosis H37Rv, retest with extended dilution scale up to 0.39 µg/mL
[9] = M. tuberculosis H37Rv, retest with extended dilution scale up to 0.39 µg/mL, read-out: Antimycobacterial activity MIC, M. tbc (confirmation retest, value in parentheses)

O=C(Nc1cccc([N+](=O)[O-])c1)c1cnc(Cl)cn1 [Compound 25]
Lipophilicity logk [1]: 0.344 | Antimycobacterial activity MIC, M. avium (M. avium CNCTC My 152/73): >100 µg/mL | Antimycobacterial activity MIC, M. avium [2]: >100 µg/mL | Antimycobacterial activity MIC, M. tbc [3, 5]: 3.13 µg/mL | Cytotoxicity SI (HepG2 cells; [6]): 2.91 | pIC50 (HepG2 cells): 4.49

Cc1ccc(Cl)c(NC(=O)c2cnc(Cl)cn2)c1 [Compound 20, 5-Chloro-N-(2-chloro-5-methylphenyl)pyrazine-2-carboxamide]
MIC (M. avium CNCTC My 152/73): > 100 µg/mL | MIC [4]: 25 µg/mL (≈ 88.6 µM) | MIC [2]: > 100 µg/mL | MIC [3, 7]: 1.56 µg/mL | Cytotoxicity SI (HepG2 cells; [6]): 2.86 | pIC50 (in vitro): 4.80

O=C(Nc1cccc(Cl)c1)c1cnc(Cl)cn1 [Compound 13]
Lipophilicity logk [1]: 0.587 | Antimycobacterial activity MIC, M. avium (M. avium CNCTC My 152/73): 25 µg/mL | Antimycobacterial activity MIC, M. kansasii [4]: 25 µg/mL | Antimycobacterial activity MIC, M. avium [2]: 25 µg/mL | Antimycobacterial activity MIC, M. tbc [3, 5]: 6.25 µg/mL | Antimycobacterial activity MIC, M. tbc (confirmation retest, value in parentheses) [3, 8]: 3.13 µg/mL

N#Cc1ccc(NC(=O)c2cnc(Cl)cn2)cc1 [Compound 27, 5-Chloro-N-(4-cyanophenyl)pyrazine-2-carboxamide]
MIC (M. avium CNCTC My 152/73): > 100 µg/mL | MIC [4]: > 100 µg/mL | MIC [2]: > 100 µg/mL | Antimycobacterial activity against M. tbc H37Rv (in words) [3]: inactive | MIC [3, 7]: > 100 µg/mL

O=C(Nc1ccc(C(F)(F)F)cc1)c1cnc(Cl)cn1 [Compound 29, 5-Chloro-N-(4-(trifluoromethyl)phenyl)pyrazine-2-carboxamide]
MIC (M. avium CNCTC My 152/73): > 100 µg/mL | MIC [4]: 12.5 µg/mL (≈ 41.4 µM) | MIC [2]: > 100 µg/mL | MIC [3, 9]: 3.13 µg/mL | MIC [3, 7]: 1.56 µg/mL | Cytotoxicity SI (HepG2 cells; [6]): 1.64 | pIC50 (in vitro): 5.07

NC(=O)c1cnccn1 [PZA, pyrazinamide, reference compound]
Lipophilicity logk [1]: −0.687 | MIC (M. avium CNCTC My 152/73): > 100 µg/mL | MIC [4]: > 100 µg/mL | MIC [2]: > 100 µg/mL | MIC [3, 7]: 6.25 to 12.5 µg/mL | MIC ([3]; read-out: M. tbc H37Rv MIC (µM), MIC converted to molar concentrations): 51 to 102 µM | Cytotoxicity SI (HepG2 cells; human): >196 | pIC50 (in vitro): < 2.00

CC(C)c1ccc(NC(=O)c2cnc(Cl)cn2)cc1 [Compound 8, 5-Chloro-N-(4-isopropylphenyl)pyrazine-2-carboxamide]
MIC (M. avium CNCTC My 152/73): > 100 µg/mL | MIC [2]: > 100 µg/mL | MIC [3, 7]: 1.56 µg/mL | Cytotoxicity SI (HepG2 cells; [6]): 2.55 | pIC50 (in vitro): 4.84

O=C(Nc1cccc(Br)c1)c1cnc(Cl)cn1 [Compound 16, 5-Chloro-N-(3-bromophenyl)pyrazine-2-carboxamide]
MIC (M. avium CNCTC My 152/73): > 100 µg/mL | MIC [4]: 25 µg/mL (≈ 80 µM) | MIC [2]: > 100 µg/mL | MIC [3, 7]: 25 µg/mL

N#Cc1cccc(NC(=O)c2cnc(Cl)cn2)c1 [Compound 26, 5-Chloro-N-(3-cyanophenyl)pyrazine-2-carboxamide]
MIC (M. avium CNCTC My 152/73): > 50 µg/mL | Antimycobacterial activity MIC, M. kansasii [4]: ≤ 6.25 µg/mL | MIC [4]: 3.13 µg/mL (≈ 12.1 µM) | MIC [2]: > 50 µg/mL | Antimycobacterial activity against M. tbc H37Rv (in words) [3]: low activity | MIC [3, 7]: 25 µg/mL

O=C(Nc1cccc(C(F)(F)F)c1)c1cnc(Cl)cn1 [Compound 28, 5-Chloro-N-(3-(trifluoromethyl)phenyl)pyrazine-2-carboxamide]
MIC (M. avium CNCTC My 152/73): > 100 µg/mL | MIC [4]: 12.5 µg/mL (≈ 41.4 µM) | MIC [2]: > 100 µg/mL | MIC [3, 9]: 6.25 µg/mL | MIC [3, 7]: 3.13 µg/mL | Cytotoxicity SI (HepG2 cells; [6]): 3.99 | pIC50 (in vitro): 4.38

O=C(Nc1ccccc1O)c1cnc(Cl)cn1 [Compound 2, 5-Chloro-N-(2-hydroxyphenyl)pyrazine-2-carboxamide]
MIC (M. avium CNCTC My 152/73): > 100 µg/mL | MIC [2]: > 100 µg/mL | MIC [3, 9]: 0.78 µg/mL | MIC [3, 7]: 3.13 µg/mL | Cytotoxicity SI (HepG2 cells; [6]): 2.39 | pIC50 (in vitro): 4.52

O=C(Nc1cccc(O)c1)c1cnc(Cl)cn1 [Compound 3, 5-Chloro-N-(3-hydroxyphenyl)pyrazine-2-carboxamide]
MIC (M. avium CNCTC My 152/73): 100 µg/mL (≈ 401 µM) | Activity against M. kansasii (in words) [4]: inactive | MIC [4]: 50 µg/mL (≈ 200 µM) | MIC [2]: > 100 µg/mL | MIC [3, 7]: 6.25 µg/mL | Cytotoxicity SI (HepG2 cells; [6]): 1.28 | pIC50 (in vitro): 4.49

CCc1ccc(NC(=O)c2cnc(Cl)cn2)cc1 [Compound 7, 5-Chloro-N-(4-ethylphenyl)pyrazine-2-carboxamide]
MIC (M. avium CNCTC My 152/73): > 100 µg/mL | MIC [2]: > 100 µg/mL | MIC [3, 9]: 0.78 µg/mL | MIC [3, 7]: 1.56 µg/mL | Cytotoxicity SI (HepG2 cells; [6]): 2.41 | pIC50 (in vitro): 5.14

O=C(Nc1ccc(O)c(Cl)c1)c1cnc(Cl)cn1 [Compound 22, 5-Chloro-N-(3-chloro-4-hydroxyphenyl)pyrazine-2-carboxamide]
MIC (M. avium CNCTC My 152/73): 25 µg/mL (≈ 88 µM) | MIC [4]: > 100 µg/mL | MIC [2]: 50 µg/mL (≈ 176 µM) | MIC [3, 9]: 0.39 µg/mL | MIC [3, 7]: 3.13 µg/mL | Cytotoxicity SI (HepG2 cells; [6]): 1.17 | pIC50 (in vitro): 4.89

O=C(Nc1ccc(Br)cc1)c1cnc(Cl)cn1 [Compound 17]
Lipophilicity logk [1]: 0.660 | Antimycobacterial activity MIC, M. avium (M. avium CNCTC My 152/73): >100 µg/mL | Antimycobacterial activity MIC, M. kansasii [4]: 6.25 µg/mL | Antimycobacterial activity MIC, M. avium [2]: >100 µg/mL | Antimycobacterial activity MIC, M. tbc [3, 5]: 3.13 µg/mL

O=C(Nc1ccc(F)cc1F)c1cnc(Cl)cn1 [Compound 11, 5-Chloro-N-(2,4-difluorophenyl)pyrazine-2-carboxamide]
MIC (M. avium CNCTC My 152/73): > 50 µg/mL | MIC [4]: 6.25 µg/mL (≈ 23.2 µM) | MIC [2]: > 50 µg/mL | MIC [3, 7]: 3.13 µg/mL

O=C(Nc1ccccc1Cl)c1cnc(Cl)cn1 [Compound 12]
Lipophilicity logk [1]: 0.819 | Antimycobacterial activity MIC, M. avium (M. avium CNCTC My 152/73): >100 µg/mL | Antimycobacterial activity MIC, M. avium [2]: >100 µg/mL | Antimycobacterial activity MIC, M. tbc [3, 5]: 3.13 µg/mL | Antimycobacterial activity MIC, M. tbc (confirmation retest, value in parentheses) [3, 8]: 0.78 µg/mL | Cytotoxicity SI (HepG2 cells; [6]): 0.58 | pIC50 (HepG2 cells): 5.17

O=C(Nc1ccc(Cl)c(Cl)c1)c1cnc(Cl)cn1 [Compound 14, 5-Chloro-N-(3,4-dichlorophenyl)pyrazine-2-carboxamide]
MIC (M. avium CNCTC My 152/73): > 100 µg/mL | MIC [4]: > 100 µg/mL | MIC [2]: > 100 µg/mL | MIC [3, 7]: 3.13 µg/mL | Cytotoxicity SI (HepG2 cells; [6]): 0.88 | pIC50 (in vitro): 5.04

O=C(Nc1ccccc1[N+](=O)[O-])c1cnc(Cl)cn1 [Compound 24, 5-Chloro-N-(2-nitrophenyl)pyrazine-2-carboxamide]
MIC (M. avium CNCTC My 152/73): > 100 µg/mL | MIC [2]: > 100 µg/mL | MIC [3, 7]: 12.5 µg/mL

O=C(Nc1cccc(F)c1)c1cnc(Cl)cn1 [Compound 10, 5-Chloro-N-(3-fluorophenyl)pyrazine-2-carboxamide]
MIC (M. avium CNCTC My 152/73): > 100 µg/mL | MIC [4]: 12.5 µg/mL (≈ 49.7 µM) | MIC [2]: > 100 µg/mL | MIC [3, 7]: 6.25 µg/mL

Cc1ccc(C)c(NC(=O)c2cnc(Cl)cn2)c1 [Compound 6, 5-Chloro-N-(2,5-dimethylphenyl)pyrazine-2-carboxamide]
MIC (M. avium CNCTC My 152/73): > 100 µg/mL | MIC [4]: > 100 µg/mL | MIC [2]: > 100 µg/mL | MIC [3, 9]: 1.56 µg/mL | MIC [3, 7]: 1.56 µg/mL | Cytotoxicity SI (HepG2 cells; [6]): 1.96 | pIC50 (in vitro): 4.93

O=C(Nc1ccccc1F)c1cnc(Cl)cn1 [Compound 9]
Lipophilicity logk [1]: 0.490 | Antimycobacterial activity MIC, M. avium (M. avium CNCTC My 152/73): >100 µg/mL | Antimycobacterial activity MIC, M. kansasii [4]: 12.5 µg/mL | Antimycobacterial activity MIC, M. avium [2]: >100 µg/mL | Antimycobacterial activity MIC, M. tbc [3, 5]: 6.25 µg/mL

Cc1ccc(F)cc1NC(=O)c1cnc(Cl)cn1 [Compound 19, 5-Chloro-N-(5-fluoro-2-methylphenyl)pyrazine-2-carboxamide]
MIC (M. avium CNCTC My 152/73): > 100 µg/mL | MIC [4]: 25 µg/mL (≈ 94.1 µM) | MIC [2]: > 100 µg/mL | MIC [3, 9]: 6.25 µg/mL | MIC [3, 7]: 3.13 µg/mL

O=C(Nc1cc([N+](=O)[O-])ccc1O)c1cnc(Cl)cn1 [Compound 23, 5-Chloro-N-(2-hydroxy-5-nitrophenyl)pyrazine-2-carboxamide]
MIC (M. avium CNCTC My 152/73): 50 µg/mL (≈ 170 µM) | MIC [2]: 50 µg/mL (≈ 170 µM) | MIC [3, 9]: 1.56 µg/mL | MIC [3, 7]: 1.56 µg/mL | Cytotoxicity SI (HepG2 cells; [6]): 0.29 | pIC50 (in vitro): 5.82
